Experimental data published in US20060276407A1, “Methods of treating hepatitis C virus” (Schering Corporation, priority 2005, published 2006).
Values joined by “and” are separate entries in the source; they are usually repeats but may differ in a detail not shown here. Identical values can stand only once. Like-named read-outs stand apart in the source and are kept apart here.

Assay: Food-effect crossover bioavailability study, 600 mg fed vs fasted, healthy adult subjects (Example 2)
Type: in vivo, human
Settings: for Plasma concentration at 8 hours / Plasma concentration at 12 hours: individual subjects; for concentration at 8 hours / concentration at 12 hours / Vd/F / AUC / Cmax / half-life / Tmax: both sexes, human, plasma, po, 600 mg; for half-life: read-out: t½ (converted); for Tmax: median (range)
Experimental: This was a randomized, open-label, single-dose, two-treatment (fed or fasted), two-period, two-sequence crossover study of the effect of food on the bioavailability of compound of Formula Ia in 23 healthy adult male and female subjects. The primary pharmacokinetic parameters were AUC(l) and Cmax for compound of Formula Ia. The study included a 7-day wash-out period between treatment periods.
Subjects were confined at the study site at least 14 hours prior to each treatment (Day −1). On the morning of Day 1, following a 10-hour overnight fast, subjects were randomized to receive in a particular order Treatment A and Treatment B: • Treatment A: compound of Formula Ia 600 mg (6×100 mg capsules) PO following an overnight fast. • Treatment B: compound of Formula Ia 600 mg (6×100 mg capsules) PO within 20 minutes following the completion of a standard high-fat breakfast. There was a 7-day wash-out period between receiving treatments.
Subjects receiving Treatment A received a formulation of compound of Formula Ia comprised of compound of Formula Ia and a pharmaceutically acceptable carrier, such as microcrystalline cellulose, while continuing to fast, while subjects randomized to Treatment B consumed a standardized high-fat meal prior to compound administration (within 20 minutes prior to the compound administration). The capsules along with approximately 240 mL of water were swallowed whole, not chewed or crushed. […] Water was permitted as desired except for 1 hour before and after compound administration. A washout period of at least 7 days separated the two treatment periods. Upon return to the clinic, subjects underwent the same procedures as the first period and continued the randomization sequence (subjects who received compound of Formula Ia fasted in Period 1 and then received compound of Formula Ia under fed conditions in Period 2, and vice versa).
Blood samples (7 mL each) for the determination of compound of Formula Ia levels were drawn immediately prior to dosing (0 hour), and at 0.5, 1, 1.5, 2, 2.5, 3, 4, 5, 6, 8, 12, 24, 36, and 48 hours after dosing. The blood samples were collected into tubes containing EDTA. The samples were centrifuged at 1500 g for 10 minutes to obtain plasma and the plasma samples were frozen at −20° C. and maintained in the frozen state until assayed.
Plasma concentrations of compound of Formula Ia were determined using a validated liquid chromatography tandem mass spectrometry (LC-MS/MS) method. The assay lower limit of quantitation (LLOQ) was 0.50 ng/mL and the method was validated over the concentration range of 0.50 to 1000 ng/mL.
The mean and percent coefficient of variation (% CV) were calculated for plasma concentrations of compound of Formula Ia at each time point. Concentration values less than the assay LLOQ were reported as, and set to zero in the tables and calculations. The plasma concentration-time data for compound of Formula Ia were subjected to pharmacokinetic analysis by noncompartmental methods using WinNonlin software. Nominal sampling times were used for pharmacokinetic analysis, since none of the pharmacokinetic sampling time deviations were >10% of the nominal times. For each subject, the following pharmacokinetic parameters were determined for compound of Formula Ia: maximum plasma concentration (Cmax), time of maximum observed plasma concentration (Tmax), the final quantifiable sampling time (tf), area under the plasma concentration-time curve from time 0 to tf (AUC[tf]), AUC(l) (AUC[tf]+ C[tf]estimated/K) and Vd/F. The K and C(tf)estimated are defined as terminal elimination rate constant and estimated concentration at final quantifiable sample, respectively. Terminal phase half-life (t½=ln 2/K) and apparent clearance (CLUF=Dose/AUC[l]) were also determined. Cmax, Tmax and tf were the observed values. […]

[1] = 600 mg PO, fasted, mean, balanced data
[2] = 600 mg PO, fed (high-fat breakfast), mean, balanced data
[3] = 600 mg PO, standardized high-fat meal

For CC(C)(C)NC(=O)N[C@H](C(=O)N1C[C@H]2[C@@H]([C@H]1C(=O)NC(CC1CCC1)C(=O)C(N)=O)C2(C)C)C(C)(C)C (mixture of isomers) [Formula Ia, (1 R, 5S)-N-[3-Amino-1-(Cyclobutylmethyl)-2,3-Dioxopropyl]-3-[2(S)-[[[(1,1-Dimethylethyl)Amino]Carbonyl]Amino]-3,3-Dimethyl-1-Oxobutyl]-6,6-Dimethyl-3-Azabicyclo[3.1.0]Hexan-2(S)-Carboxamide], the “Apparent mean Vd/F, fed versus fasted states” value (600 mg PO) was “about five”, the “Median concentration at the 8-hour time point, fed state relative to fasted state” value (600 mg PO) was “more than 4 fold” and the “Median concentration at the 12-hour time point, increase in fed state relative to fasted state” value (600 mg PO) was 2 fold. For the same compound, the “AUC(l) Ratio Estimate (fed to fasted)” value (600 mg PO, Female (n = 10)) was 225%, the “AUC(tf) Ratio Estimate (fed to fasted)” value (600 mg PO, Female (n = 10)) was 229% and the “Cmax Ratio Estimate (fed to fasted)” value (600 mg PO, Female (n = 10)) was 170%. The “AUC(l) Ratio Estimate (fed to fasted)” value (600 mg PO, Male (n = 10)) was 202%, the “AUC(tf) Ratio Estimate (fed to fasted)” value (600 mg PO, Male (n = 10)) was 205% and the “Cmax Ratio Estimate (fed to fasted)” value (600 mg PO, Male (n = 10)) was 155%. For the same compound, the “Plasma concentration at 8 hours” value (600 mg PO, fasted) was 37.5 ng/mL and 18.7 ng/mL and 37.4 ng/mL and 13.4 ng/mL and 77.9 ng/mL and 39.0 ng/mL and 46.6 ng/mL and 50.0 ng/mL and 66.8 ng/mL and 19.3 ng/mL and 8.50 ng/mL and 27.3 ng/mL and 24.8 ng/mL and 24.1 ng/mL and 81.3 ng/mL and 58.0 ng/mL and 33.5 ng/mL and 28.7 ng/mL and 27.8 ng/mL, the “Plasma concentration at 12 hours” value (600 mg PO, fasted) was 20.9 ng/mL and 8.12 ng/mL and 27.0 ng/mL and 4.90 ng/mL and 21.3 ng/mL and 16.3 ng/mL and 18.3 ng/mL and 20.6 ng/mL and 11.4 ng/mL and 4.46 ng/mL and 3.11 ng/mL and 13.2 ng/mL and 9.56 ng/mL and 19.6 ng/mL and 26.6 ng/mL and 14.3 ng/mL and 9.33 ng/mL and 9.50 ng/mL and 10.7 ng/mL and the CL/F [1] was 393 L/h. For the same compound, the CL/F [2] was 179 L/h, the “Plasma concentration at 8 hours” value (600 mg PO, fed) was 33.8 ng/mL and 62.2 ng/mL and 190 ng/mL and 92.4 ng/mL and 442 ng/mL and 81.4 ng/mL and 54.3 ng/mL and 675 ng/mL and 392 ng/mL and 949 ng/mL and 46.1 ng/mL and 426 ng/mL and 283 ng/mL and 55.6 ng/mL and 164 ng/mL and 612 ng/mL and 54.8 ng/mL and 447 ng/mL and 33.6 ng/mL and the “Plasma concentration at 12 hours” value (600 mg PO, fed) was 7.34 ng/mL and 11.2 ng/mL and 27.8 ng/mL and 13.6 ng/mL and 37.2 ng/mL and 13.9 ng/mL and 33.5 ng/mL and 384 ng/mL and 184 ng/mL and 54.2 ng/mL and 6.70 ng/mL and 22.2 ng/mL and 140 ng/mL and 10.4 ng/mL and 87.3 ng/mL and 109 ng/mL and 9.17 ng/mL and 48.8 ng/mL and 7.09 ng/mL. The “AUC(l) Ratio Estimate (fed to fasted)” value (600 mg PO, n = 20) was 214%, the “AUC(tf) Ratio Estimate (fed to fasted)” value (600 mg PO, n = 20) was 217% and the “Cmax Ratio Estimate (fed to fasted)” value (600 mg PO, n = 20) was 162%. The “Increase of Cmax in the fed state” value [3] was 62%, the “Increase of mean relative bioavailability (AUC) in the fed state relative to fasted” value [3] was “over 100%” and the “Safety profile (treatment emergent and treatment related AEs)” value (600 mg oral dose, both fed and fasted states) was “low frequency of treatment emergent and treatment related AEs”. It also gave a concentration at 8 hours (600 mg PO, fasted, Max) of 81.3 ng/mL, a concentration at 12 hours (600 mg PO, fasted, Max) of 27 ng/mL and a concentration at 8 hours (600 mg PO, fasted, Min) of 8.5 ng/mL. It also gave a concentration at 12 hours (600 mg PO, fasted, Min) of 3.11 ng/mL, a concentration at 8 hours (600 mg PO, fasted, mean) of 37.9 ng/mL and a concentration at 12 hours (600 mg PO, fasted, mean) of 14.2 ng/mL. It also gave a Vd/F [1] of 6730 L, an AUC (600 mg PO, fasted, mean, balanced data, read-out: AUC(l)) of 1750 ng·h/mL and an AUC (600 mg PO, fasted, mean, balanced data, read-out: AUC(tf)) of 1720 ng·h/mL. The Cmax (600 mg PO, fasted, mean, balanced data, read-out: Cmax) was 448 ng/mL, the half-life [1] was 12 h and the concentration at 8 hours (600 mg PO, fasted, median) was 33.5 ng/mL. For the same compound, the concentration at 12 hours (600 mg PO, fasted, median) was 13.2 ng/mL, the Tmax (600 mg PO, fasted, balanced data) was 2 h and the AUC (600 mg PO, fasted, n = 20, read-out: AUC(l), model-based (least square) mean) was 1650 ng·h/mL. The AUC (600 mg PO, fasted, n = 20, read-out: AUC(tf), model-based (least square) mean) was 1620 ng·h/mL, the Cmax (600 mg PO, fasted, n = 20, read-out: Cmax, model-based (least square) mean) was 418 ng/mL and the Vd/F [2] was 1150 L. For the same compound, the AUC (600 mg PO, fed (high-fat breakfast), mean, balanced data, read-out: AUC(l)) was 3700 ng·h/mL, the AUC (600 mg PO, fed (high-fat breakfast), mean, balanced data, read-out: AUC(tf)) was 3660 ng·h/mL and the Cmax (600 mg PO, fed (high-fat breakfast), mean, balanced data, read-out: Cmax) was 790 ng/mL. The half-life [2] was 4.72 h, the Tmax (600 mg PO, fed (high-fat breakfast), balanced data) was 5 h and the concentration at 8 hours (600 mg PO, fed, Max) was 949 ng/mL. For the same compound, the concentration at 12 hours (600 mg PO, fed, Max) was 384 ng/mL, the concentration at 8 hours (600 mg PO, fed, Min) was 33.6 ng/mL and the concentration at 12 hours (600 mg PO, fed, Min) was 6.7 ng/mL. For the same compound, the concentration at 8 hours (600 mg PO, fed, mean) was 268 ng/mL, the concentration at 12 hours (600 mg PO, fed, mean) was 63.5 ng/mL and the concentration at 8 hours (600 mg PO, fed, median) was 164 ng/mL. It also gave a concentration at 12 hours (600 mg PO, fed, median) of 27.8 ng/mL, an AUC (600 mg PO, fed, n = 20, read-out: AUC(l), model-based (least square) mean) of 3530 ng·h/mL and an AUC (600 mg PO, fed, n = 20, read-out: AUC(tf), model-based (least square) mean) of 3500 ng·h/mL. It also gave a Cmax (600 mg PO, fed, n = 20, read-out: Cmax, model-based (least square) mean) of 678 ng/mL.
